Values joined by “and” are separate entries in the source; they are usually repeats but may differ in a detail not shown here. Equal entries are not always repeated.
Row | Structure (SMILES) | melting point
1 | O=[N+]([O-])c1ccc(CCl)cc1 [4-nitrobenzyl chloride] | 72 °C
2 | c1ccc(CCc2ccccc2)cc1 [1,2-diphenylethane] | 51.5 °C and 52 °C
3 | CCOC(O)C(Cl)(Cl)Cl (stereo not given) [2,2,2-trichloro-1-ethoxyethanol] | 50 °C
4 | O=C(O)C1COc2ccccc2O1 (stereo not given) [1,4-benzodioxane-2-carboxylic acid] | 124 °C
5 | O=[N+]([O-])c1ccc(/N=N/c2c(O)ccc3ccccc23)cc1 [1-(4-nitrophenylazo)-2-naphthol] | 250 °C
6 | O=[N+]([O-])c1ccc(Cl)cc1Cl [2,4-dichloronitrobenzene] | 31 °C
7 | CCC1(CC)C(=O)NC(=O)NC1=O [barbital] | 190 °C
8 | CC12CCC(/C(=C\Nc3ccccc3C(=O)O)C1=O)C2(C)C (stereo not given) | 112 °C
9 | Oc1c(I)cc(I)cc1I [2,4,6-triiodophenol] | 158 °C
10 | c1ccc(NNc2ccccc2)cc1 [hydrazobenzene] | 125 °C
11 | Nc1cc([N+](=O)[O-])ccc1O [2-amino-4-nitrophenol] | 143 °C
12 | Cc1cccc(Cl)c1 [1-Chloro-3-methylbenzene] | -48 °C
13 | C=C(C)CC [2-Methylbut-1-ene] | -137 °C
14 | O=C(O)c1cccc(Cl)c1 [3-chlorobenzoic acid] | 157 °C
15 | CC12CCC3C(CCC4CC(=O)CCC43C)C1CCC2=O (stereo not given) [androstane-3,17-dione] | 132 °C
16 | O=[N+]([O-])c1ccc(Cl)c([N+](=O)[O-])c1 [1-chloro-2,4-dinitrobenzene] | 53 °C
17 | O=[N+]([O-])c1cc[n+]([O-])c(Cl)c1F [2-chloro-3-fluoro-4-nitropyridine n-oxide] | 177 °C
18 | O=C(/C(=N/Nc1cccnc1)C(=O)C(F)(F)F)c1cccs1 | 151 °C
19 | CCOC(=O)c1ccc(NC(=O)C(F)(F)C(F)(F)C(F)(F)C(F)(F)C(F)(F)C(F)(F)C(F)(F)C(F)(F)F)cc1 | 136 °C
20 | CC(Br)CCCBr (stereo not given) [1,4-dibromopentane] | -34 °C
21 | Nc1ccc2ncsc2c1 [6-aminobenzothiazole] | 88 °C
22 | CCCC(C)(COC(N)=O)COC(N)=O [meprobamate] | 105 °C
23 | COc1ccc(Br)c(OC)c1C(=O)O [3-bromo-2,6-dimethoxybenzoic acid] | 146 °C

Row | Structure (SMILES) | melting point
24 | CCOc1ccc(Br)cc1 [4-bromophenetole] | 4 °C
25 | [2H]C([2H])([2H])C(=O)C([2H])([2H])[2H] [(~2~H_6_)Propan-2-one] | -93 °C
26 | O=[N+]([O-])c1ccc(Cl)cc1 [4-chloronitrobenzene] | 83.5 °C
27 | CC(C(=O)O)c1ccc(-c2ccccc2)c(F)c1 (stereo not drawn) [2-fluoro-alpha-methyl-4-biphenylacetic acid] | 113 °C
28 | CCCC(C)=O [2-pentanone] | -78 °C
29 | CN(C)c1ccc(/C=C2\C(=O)C3CCC(C)(C2=O)C3(C)C)cc1 (stereo not given) | 153 °C
30 | CCCCCCCCCCO [1-decanol] | 7 °C
31 | ClCCCl [1,2-dichloroethane] | -35 °C
32 | CCC1(C2=CCCCCC2)C(=O)NC(=O)NC1=O [heptabarbital] | 174 °C
33 | CC(=O)c1ccc(C#N)cc1 [p-acetyl_benzonitrile] | 59 °C
34 | O=C(O)CC[N+](=O)[O-] [3-Nitropropanoic acid] | 64 °C
35 | C=CCCC(=O)O [4-pentenoic acid] | -22 °C
36 | Cc1cc2ccccc2[n+]([O-])c1 [3-methylquinoline n-oxide] | 89 °C
37 | Cc1ccc(C(=O)O)cc1Cl [3-chloro-4-methylbenzoic acid] | 199 °C
38 | Nc1c(Br)cc(Br)cc1Br [2,4,6-Tribromoaniline] | 121 °C
39 | Nc1ccc([N+](=O)[O-])cc1Cl [2-Chloro-4-nitroaniline] | 108 °C
40 | Nc1cc(Cl)cc(Cl)c1 [3,5-dichloroaniline] | 53 °C
41 | OB(O)c1ccc(F)c(F)c1F [2,3,4-trifluorobenzeneboronic acid] | 203 °C
42 | O=C(CCC(=O)c1ccccc1)c1ccccc1 [1,2-dibenzoylethane] | 146 °C
43 | COc1ccccc1O [2-methoxyphenol] | 30 °C
44 | Clc1cccc(I)c1Cl [1,2-dichloro-3-iodobenzene] | 35 °C
45 | O=C(O)c1cc(Br)cc(Br)c1 [3,5-dibromobenzoic acid] | 220 °C
46 | O=C(O)C(F)(F)C(F)(F)C(F)(F)C(F)(F)C(F)(F)C(F)(F)C(F)(F)C(F)(F)C(F)(F)F [Nonadecafluorodecanoic acid] | 78 °C

Further lines, results first:

Row | melting point | Structure (SMILES)
47 | -44 °C | C[Si]1(C)O[Si](C)(C)O[Si](C)(C)O[Si](C)(C)O[Si](C)(C)O1 [decamethylcyclopentasiloxane]
48 | 158 °C | O=C(/C=C/c1ccc(-c2ccc([N+](=O)[O-])cc2)o1)c1ccccc1 [(2E)-3-[5-(4-Nitrophenyl)-2-furyl]-1-phenylprop-2-en-1-one]
49 | 106 °C | O=C(NCc1ccccc1)c1ccccc1 [N-benzylbenzamide]
50 | 57 °C | CCCCCCCCCCCCCCCCCO [Heptadecan-1-ol]
51 | 199 °C | CCCN(CCC)S(=O)(=O)c1ccc(C(=O)O)cc1 [probenecid]
52 | 72 °C | CCCCOC(=O)c1ccc(O)cc1 [Mekkings B]
53 | 50 °C | C1CCC2OCCOCCOC3CCCCC3OCCOCCOC2C1 (stereo not given) [dicyclohexano-18-crown-6]
54 | 186 °C | Nc1ncnc2c1ncn2[C@@H]1O[C@H](COP(=O)(O)O)[C@@H](O)[C@H]1O [Adenosine monophosphate]
55 | 80 °C | CC(=O)c1ccc([N+](=O)[O-])cc1 [p-nitroacetophenone]
56 | -142 °C | CC1CCCC1 [methylcyclopentane]
57 | 170 °C | COc1ccc(Cl)cc1C(=O)NCCc1ccc(S(=O)(=O)NC(=O)NC2CCCCC2)cc1 [Glibenclamide]
58 | -34 °C | CCCCC(=O)O [pentanoic_acid]
59 | 50 °C | CCOC=C(C#N)C(=O)OCC [ethyl (ethoxymethylene)cyanoacetate]
60 | 37 °C | C=Cc1ccc(C(C)=O)cc1 [p-acetylstyrene]
61 | -79 °C | CN1CCC[C@H]1c1cccnc1 [(S)-nicotine]
62 | 255 °C | [2H]c1c([2H])c([2H])c2c(c1[2H])c([2H])c([2H])c1c3c([2H])c([2H])c([2H])c([2H])c3c([2H])c([2H])c21 [(~2~H_12_)Chrysene]
63 | 152 °C | CC(=O)Nc1ccccc1C1C=c2ccccc2=N1 (stereo not given) [N-[2-(1H-indol-2-yl)phenyl]acetamide]
64 | 116 °C | Nc1ccc2ccc3cccc4ccc1c2c34 [aminopyrene]
65 | 65 °C and 62.3 °C and 63 °C | COc1ccc(C=Nc2ccccc2)cc1 [N-(4-methoxybenzylidene)aniline]
66 | 120 °C | ON(/C=C/c1ccccc1)c1ccccc1 [N-hydroxy-N-[(E)-2-phenylethenyl]aniline]
67 | 94 °C (2×) and 93 °C | CC(C(=O)O)c1cccc(C(=O)c2ccccc2)c1 (stereo not given) [ketoprofen]
68 | 156 °C | COc1ccc2[nH]c(S(=O)Cc3ncc(C)c(OC)c3C)nc2c1 (stereo not given) [omeprazole]
69 | 116 °C | O=Cc1ccc(C=O)cc1 [terephthalaldehyde]
70 | -34 °C | CCOC(=O)c1ccccc1 [Ethyl benzoate]

Reference: the Bradley open melting point set (2014)
